Laboratory results: patent US20180311217A1, “METHODS OF TREATMENT AND COMPOSITIONS WITH XANTHINE OXIDASE INHIBITORS” (Takeda Pharmaceuticals U.S.A., Inc., priority 2013, published 2018)

Tested on: hyperuricemic gout subjects with moderate to severe renal impairment
Assay: Example 1 study: serum creatinine (sCr)
Type: in vivo, human
Conditions: for mean sCr: no prior and/or current use ARB or ACEi; for changes in sCr: prior and/or current use of ACEi; for changes in sCr / changes in mean sCr levels: Months 6 and 12; for change in sCr over time compared with placebo: sCr 2.0 to <2.5 mg/dL at Baseline; for change in sCr over time compared to placebo: sUA of 9.0 to <10.0 mg/dL at Baseline
Experimental: Efficacy of febuxostat was assessed by measurement of serum creatinine (and calculation of eGFR), clinic systolic and diastolic BP, and sUA levels. Serum samples for the analysis of serum creatinine (and calculation of eGFR) were collected at the time points stipulated in Schedule of Study Procedures (Table 1.). The primary efficacy variable was the change from Baseline to Month 12 in sCr. Summary statistics were presented for Baseline, postbaseline, and change from Baseline by treatment group at each visit. The primary analysis was based on the analysis of covariance (ANCOVA) model for change from baseline to Month 12 for the primary efficacy variable. The model included treatment as a factor, and the baseline sCr and prior use of an ARB or an ACEi (subjects taking an ARB or an ACEi or not taking an ARB or an ACEi) as covariates.

## Cc1nc(-c2ccc(OCC(C)C)c(C#N)c2)sc1C(=O)O [Febuxostat, 2-[3-cyano-4-(2-methylpropoxy)phenyl]-4-methylthiazole-5-carboxylic acid]
30 mg BID
  renal function preservation compared with febuxostat 40/80 mg QD: better renal function preservation
  mean sCr: increased
  changes in sCr: slight improvements
  change in sCr over time compared with placebo: small favorable trend
  change in sCr over time compared to placebo: small favorable trend
30 mg BID, Day 14
  Serum Creatinine, Change from Baseline: 0.09 mg/dL
  Serum Creatinine, Mean: 2.18 mg/dL
30 mg BID, Month 1
  Serum Creatinine, Change from Baseline: 0.13 mg/dL
  Serum Creatinine, Mean: 2.23 mg/dL
30 mg BID, Month 3
  Serum Creatinine, Change from Baseline: 0.09 mg/dL
  Serum Creatinine, Mean: 2.18 mg/dL
30 mg BID, Month 6
  Serum Creatinine, Change from Baseline: 0.03 mg/dL
  Serum Creatinine, Mean: 2.12 mg/dL
  Serum creatinine change from Baseline, LS mean: 0.04 mg/dL
  Serum creatinine change from Baseline, LS mean difference from placebo group: -0.11 mg/dL
30 mg BID, Month 9
  Serum Creatinine, Change from Baseline: 0.11 mg/dL
  Serum Creatinine, Mean: 2.21 mg/dL
30 mg BID, Month 12
  Serum Creatinine, Change from Baseline: 0.04 mg/dL
  Serum Creatinine, Mean: 2.13 mg/dL
  Serum creatinine change from Baseline, LS mean: 0.09 mg/dL
  Serum creatinine change from Baseline, LS mean difference from placebo group: -0.10 mg/dL
30 mg BID, prior and/or current use of ARB
  changes in mean sCr levels: minimal changes or a slight improvement
30 mg BID, subjects with moderate renal impairment
  changes in mean sCr levels: minimal changes
40/80 mg QD, Day 14
  Serum Creatinine, Change from Baseline: 0.08 mg/dL
  Serum Creatinine, Mean: 2.30 mg/dL
40/80 mg QD, Month 1
  Serum Creatinine, Change from Baseline: 0.05 mg/dL
  Serum Creatinine, Mean: 2.25 mg/dL
40/80 mg QD, Month 3
  Serum Creatinine, Change from Baseline: 0.04 mg/dL
  Serum Creatinine, Mean: 2.24 mg/dL
40/80 mg QD, Month 6
  Serum Creatinine, Change from Baseline: 0.06 mg/dL
  Serum Creatinine, Mean: 2.26 mg/dL
  Serum creatinine change from Baseline, LS mean: 0.07 mg/dL
  Serum creatinine change from Baseline, LS mean difference from placebo group: -0.08 mg/dL
40/80 mg QD, Month 9
  Serum Creatinine, Change from Baseline: 0.01 mg/dL
  Serum Creatinine, Mean: 2.22 mg/dL
40/80 mg QD, Month 12
  Serum Creatinine, Change from Baseline: 0.19 mg/dL
  Serum Creatinine, Mean: 2.40 mg/dL
  Serum creatinine change from Baseline, LS mean: 0.23 mg/dL
  Serum creatinine change from Baseline, LS mean difference from placebo group: 0.04 mg/dL
40/80 mg QD
  mean sCr: increased
  changes in sCr: minimal changes
  change in sCr over time compared with placebo: small favorable trend
  change in sCr over time compared to placebo: small favorable trend
40/80 mg, prior and/or current use of ARB
  changes in mean sCr levels: minimal changes or a slight improvement
40/80 mg, subjects with moderate renal impairment
  changes in mean sCr levels: small increases
